Read-outs that look alike come from different tables or passages of the source.
Legend:
[1] = Pharmacokinetic study in rats, single intramuscular injection, plasma prodrug and parent drug by LC-MS/MS; type: in vivo, Sprague-Dawley rats
Description: General Procure: The formulations of opioid ester prodrugs are prepared to provide 180 mg/ml suspension by adding 1.8 g of prodrug to a 50 ml glass vial. To the solids is added […] of injection vehicle (2-3% sodium CMC, 0.2% polysorbate 20 in phosphate buffered saline (PBS) pH 7). The resulting mixture is sonicated for 10 min and left standing. The contents of the vial is then shaken until a uniform, clump-free suspension is obtained prior to dosing.
Twelve male Male Sprague-Dawley rats with a body weight approximately 250 g are used in the study. A single intramuscular injection of ester prodrug (180 mg) is administered to rats. Blood samples is collected at 0 (pretreatment) 0.5, 1, 2, 4, 8, 12 and 24 days after administration. Blood is collected with commercially available plastic tubes containing a clot activator. Within 10 min of collection, blood is centrifugation at 2.500 g for 10 min. Plasma is separated and frozen at −18° C. until analyzed by LC-MS/MS. Both prodrug and its corresponding parent drug are analyzed. The pharmacokinetic parameters (AUC, Tmax, Cmax, T1/2, etc) of the test articles are compared to compare the performance of prodrugs to their parent drugs.
Pharmacokinetic Studies for Compounds 2, 3, and 7. Pharmacokinetic studies were conducted for three compounds (Compounds 2, 3 and 7) in rats. The formulations were prepared either in sesame oil (Compound 2, 100 mg eq/mL) or aqueous suspension (Compounds 3 and 7, 100 mg eq/mL and 60 mg eq/mL, respectively). The dosage “eq” refers to the equivalent dosing amount of the respective parent drug, e.g., oxymorphone or hydromorphone in this Example. The sesame oil formulation contains 1.2% benzyl alcohol. The suspension formulation was prepared in PBS buffer containing 2% CMC and 0.2% Tween 80. The particle sizes of the testing compounds in suspension were kept under 10 micron. Both oil and suspension formulations were sterilized by electronic beam before administered to Sprague-Dawley rats.
Twelve Male Sprague-Dawley rats with body weight of approximately 250 gram were randomly divided into three groups. The rats were housed in cages for at least 5 days prior to entering the study and had free access to standard pellets and water during the period. The formulations (0.05 mL) were administered to rats by intra muscular injection via hind leg. Blood (0.10 mL) was sampled by individual tail vein puncture at the following time points: 0.5, 2, 8 hours, 1, 3, 6, 13, 27 days post-dose. Blood was collected into K2EDTA coated tubes and centrifuged at 4° C. at 2000 g in for 10 min to obtain plasma. Plasma (0.05 mL) was immediately quenched with 100 uL methanol/acetonitrile (1:1) containing 50 ng/mL ISTD (Terfenadine and Buspirone). The mixture was vortexed for 1 min and centrifuged at 4000 rpm for 15 min. Supernatant was diluted 2 fold with 0.1% FA in water for injection. Both prodrug and the drug were analyzed using LC-MS/MS on AB Sciex API 5500. The pharmacokinetic parameters were calculated and reported as following.

[2] = monomeric fatty acid, aqueous; Vorum et al. 1992; cited from earlier work
[3] = analyte prodrug Compound 7 in plasma, Compound 7 IM 102.5 mg/kg, aqueous suspension, N = 4, mean
[4] = male, Sprague-Dawley, rat, analyte prodrug Compound 7 in plasma, Compound 7 IM 102.5 mg/kg, aqueous suspension, N = 4, mean
[5] = analyte prodrug Compound 3 in plasma, Compound 3 IM 119.14 mg/kg, aqueous suspension, N = 4, mean
[6] = oxymorphone / Compound 3, Compound 3 IM 119.14 mg/kg, N = 4, mean
[7] = analyte prodrug Compound 2 in plasma, Compound 2 IM 29.7 mg/kg, sesame oil formulation, Rat #14
[8] = analyte prodrug Compound 2 in plasma, Compound 2 IM 118.11 mg/kg, sesame oil formulation, Rat #1-3, mean
[9] = oxymorphone / Compound 2, Compound 2 IM 29.7 mg/kg, Rat #14
[10] = oxymorphone / Compound 2, Compound 2 IM 118.11 mg/kg, Rat #1-3, mean

CCCCCCCCCCCCCCCCCCCC(=O)Oc1ccc2c3c1O[C@H]1C(=O)CC[C@H]4[C@@H](C2)N(C)CC[C@]314 [Compound 7, Hydromorphone eicosanate]
AUC Extr [1, 3]: 4.36% | AUCInf/D [1, 3]: 27.8 kg·ng·h/mL/mg | AUC(0-inf) [1, 4]: 2850 ng·h/mL | AUC(0-t) [1, 4]: 2760 ng·h/mL | MRT inf [1, 4]: 138 h | half-life [1, 4]: 64.4 h | Cmax ([1]; male, Sprague-Dawley, rat, analyte prodrug Compound 7 in plasma, Compound 7 IM 102.5 mg/kg, aqueous suspension, N = 4, mean, read-out: Cmax): 45.6 ng/mL | tmax ([1]; male, Sprague-Dawley, rat, analyte prodrug Compound 7 in plasma, Compound 7 IM 102.5 mg/kg, aqueous suspension, N = 4, mean, read-out: tmax): 6.13 h

CCCCCCCCCCCC(=O)O [laurate]
solubility [2]: greater than 500 μM

CCCCCCCCCCCCCC(=O)O [myristate]
solubility [2]: 20 to 30 µM

Oxymorphone eicosanate [Compound 3]
AUC Extr ([1]; analyte parent drug oxymorphone in plasma, Compound 3 IM 119.14 mg/kg, aqueous suspension, N = 4, mean): 63.7% | AUC Extr [1, 5]: 29.9% | AUCInf [1, 5]: 2355 ng·h/mL | AUCInf/D [1, 5]: 19.8 kg·ng·h/mL/mg | AUClast [1, 5]: 1711 ng·h/mL | Cmax [1, 5]: 4.79 ng/mL | MRTInf [1, 5]: 484 h | t1/2 [1, 5]: 263 h | tmax [1, 5]: 212 h | AUClast Ratio (Parent/Pro) [1, 6]: 4.44 | Cmax Ratio (Parent/Pro) [1, 6]: 3.22

Oxymorphone hexadecanate [Compound 2]
AUC Extr ([1]; analyte parent drug oxymorphone in plasma, Compound 2 IM 29.7 mg/kg, sesame oil formulation, Rat #14): 0.99% | AUC Extr ([1]; analyte parent drug oxymorphone in plasma, Compound 2 IM 118.11 mg/kg, sesame oil formulation, Rat #1-3, mean): 5.71% | AUC Extr [1, 7]: 42.6% | AUCInf [1, 7]: 30.3 ng·h/mL | AUCInf/D [1, 7]: 1.02 kg·ng·h/mL/mg | AUClast [1, 7]: 17.4 ng·h/mL | Cmax [1, 7]: 0.54 ng/mL | MRTInf [1, 7]: 108 h | t1/2 [1, 7]: 76 h | tmax [1, 7]: 2.00 h | AUC Extr [1, 8]: 39.8% | AUCInf [1, 8]: 101 ng·h/mL | AUCInf/D [1, 8]: 0.857 kg·ng·h/mL/mg | AUClast [1, 8]: 51.3 ng·h/mL | Cmax [1, 8]: 1.62 ng/mL | MRTInf [1, 8]: 156 h | t1/2 [1, 8]: 130 h | tmax [1, 8]: 3.50 h | AUClast Ratio (Parent/Pro) [1, 9]: 151 | Cmax Ratio (Parent/Pro) [1, 9]: 21 | AUClast Ratio (Parent/Pro) [1, 10]: 161 | Cmax Ratio (Parent/Pro) [1, 10]: 63.7

Reference: patent US11254685B2, “Abuse-resistant long-acting release opioid prodrugs” (priority 2017, dated 2022)
